From ChEMBL document CHEMBL1140040, “Synthesis and cytotoxic activity of some novel polycyclic gamma-butyrolactones” (Bioorg Med Chem Lett, 2008)

Key:
DU-145 [1] = test: Cytotoxicity against human DU145 cells assessed as age growth inhibition at 10 uM after 48 hrs by sulforhodamine B assay; assay type: functional; conditions: DU-145, 48 h, read-out: GI
HCT-15 [2] = test: Antiproliferative activity against human HCT15 cells after 48 hrs by sulforhodamine B assay; assay type: functional, cell-based; conditions: HCT-15, 48 h
SK-OV-3 [3] = test: Antiproliferative activity against human SKOV3 cells after 48 hrs by sulforhodamine B assay; assay type: functional, cell-based; conditions: SK-OV-3, 48 h
COLO 205 [4] = test: Cytotoxicity against human COLO205 cells assessed as age growth inhibition at 100 uM after 48 hrs by sulforhodamine B assay; assay type: functional; conditions: COLO 205, 48 h, read-out: GI
A549 [5] = test: Cytotoxicity against human A549 cells assessed as age growth inhibition at 10 uM after 48 hrs by sulforhodamine B assay; assay type: functional; conditions: A549, 48 h, read-out: GI
A549 [6] = test: Cytotoxicity against human A549 cells assessed as age growth inhibition at 50 uM after 48 hrs by sulforhodamine B assay; assay type: functional; conditions: A549, 48 h, read-out: GI
HCT-15 [7] = test: Cytotoxicity against human HCT15 cells assessed as age growth inhibition at 10 uM after 48 hrs by sulforhodamine B assay; assay type: functional; conditions: HCT-15, 48 h, read-out: GI
IGROV-1 [8] = test: Cytotoxicity against human IGROV1 cells assessed as age growth inhibition at 100 uM after 48 hrs by sulforhodamine B assay; assay type: functional; conditions: IGROV-1, 48 h, read-out: GI
SF-295 [9] = test: Cytotoxicity against human SF295 cells assessed as age growth inhibition at 100 uM after 48 hrs by sulforhodamine B assay; assay type: functional; conditions: SF-295, 48 h, read-out: GI
HCT-15 [10] = test: Cytotoxicity against human HCT15 cells assessed as age growth inhibition at 100 uM after 48 hrs by sulforhodamine B assay; assay type: functional; conditions: HCT-15, 48 h, read-out: GI
SK-OV-3 [11] = test: Cytotoxicity against human SKOV3 cells assessed as age growth inhibition at 100 uM after 48 hrs by sulforhodamine B assay; assay type: functional; conditions: SK-OV-3, 48 h, read-out: GI
A549 [12] = test: Cytotoxicity against human A549 cells assessed as age growth inhibition at 100 uM after 48 hrs by sulforhodamine B assay; assay type: functional; conditions: A549, 48 h, read-out: GI
HOP-62 [13] = test: Antiproliferative activity against human HOP62 cells after 48 hrs by sulforhodamine B assay; assay type: functional, cell-based; conditions: HOP-62, 48 h
SK-OV-3 [14] = test: Cytotoxicity against human SKOV3 cells assessed as age growth inhibition at 50 uM after 48 hrs by sulforhodamine B assay; assay type: functional; conditions: SK-OV-3, 48 h, read-out: GI
SF-295 [15] = test: Cytotoxicity against human SF295 cells assessed as age growth inhibition at 10 uM after 48 hrs by sulforhodamine B assay; assay type: functional; conditions: SF-295, 48 h, read-out: GI
DU-145 [16] = test: Antiproliferative activity against human DU145 cells after 48 hrs by sulforhodamine B assay; assay type: functional, cell-based; conditions: DU-145, 48 h
DU-145 [17] = test: Cytotoxicity against human DU145 cells assessed as age growth inhibition at 50 uM after 48 hrs by sulforhodamine B assay; assay type: functional; conditions: DU-145, 48 h, read-out: GI
SF-295 [18] = test: Antiproliferative activity against human SF295 cells after 48 hrs by sulforhodamine B assay; assay type: functional, cell-based; conditions: SF-295, 48 h
A549 [19] = test: Antiproliferative activity against human A549 cells after 48 hrs by sulforhodamine B assay; assay type: functional, cell-based; conditions: A549, 48 h
SF-295 [20] = test: Cytotoxicity against human SF295 cells assessed as age growth inhibition at 50 uM after 48 hrs by sulforhodamine B assay; assay type: functional; conditions: SF-295, 48 h, read-out: GI
HEp-2 [21] = test: Cytotoxicity against human HEP2 cells assessed as age growth inhibition at 50 uM after 48 hrs by sulforhodamine B assay; assay type: functional; conditions: HEp-2, 48 h, read-out: GI
HOP-62 [22] = test: Cytotoxicity against human HOP62 cells assessed as age growth inhibition at 50 uM after 48 hrs by sulforhodamine B assay; assay type: functional; conditions: HOP-62, 48 h, read-out: GI
IGROV-1 [23] = test: Antiproliferative activity against human IGROV1 cells after 48 hrs by sulforhodamine B assay; assay type: functional, cell-based; conditions: IGROV-1, 48 h
HOP-62 [24] = test: Cytotoxicity against human HOP62 cells assessed as age growth inhibition at 100 uM after 48 hrs by sulforhodamine B assay; assay type: functional; conditions: HOP-62, 48 h, read-out: GI
IGROV-1 [25] = test: Cytotoxicity against human IGROV1 cells assessed as age growth inhibition at 50 uM after 48 hrs by sulforhodamine B assay; assay type: functional; conditions: IGROV-1, 48 h, read-out: GI
HEp-2 [26] = test: Antiproliferative activity against human HEP2 cells after 48 hrs by sulforhodamine B assay; assay type: functional, cell-based; conditions: HEp-2, 48 h
COLO 205 [27] = test: Antiproliferative activity against human COLO205 cells after 48 hrs by sulforhodamine B assay; assay type: functional, cell-based; conditions: COLO 205, 48 h
COLO 205 [28] = test: Cytotoxicity against human COLO205 cells assessed as age growth inhibition at 50 uM after 48 hrs by sulforhodamine B assay; assay type: functional; conditions: COLO 205, 48 h, read-out: GI
HCT-15 [29] = test: Cytotoxicity against human HCT15 cells assessed as age growth inhibition at 50 uM after 48 hrs by sulforhodamine B assay; assay type: functional; conditions: HCT-15, 48 h, read-out: GI
SK-OV-3 [30] = test: Cytotoxicity against human SKOV3 cells assessed as age growth inhibition at 10 uM after 48 hrs by sulforhodamine B assay; assay type: functional; conditions: SK-OV-3, 48 h, read-out: GI
HEp-2 [31] = test: Cytotoxicity against human HEP2 cells assessed as age growth inhibition at 100 uM after 48 hrs by sulforhodamine B assay; assay type: functional; conditions: HEp-2, 48 h, read-out: GI
HEp-2 [32] = test: Cytotoxicity against human HEP2 cells assessed as age growth inhibition at 10 uM after 48 hrs by sulforhodamine B assay; assay type: functional; conditions: HEp-2, 48 h, read-out: GI
COLO 205 [33] = test: Cytotoxicity against human COLO205 cells assessed as age growth inhibition at 10 uM after 48 hrs by sulforhodamine B assay; assay type: functional; conditions: COLO 205, 48 h, read-out: GI
DU-145 [34] = test: Cytotoxicity against human DU145 cells assessed as age growth inhibition at 100 uM after 48 hrs by sulforhodamine B assay; assay type: functional; conditions: DU-145, 48 h, read-out: GI
IGROV-1 [35] = test: Cytotoxicity against human IGROV1 cells assessed as age growth inhibition at 10 uM after 48 hrs by sulforhodamine B assay; assay type: functional; conditions: IGROV-1, 48 h, read-out: GI
HOP-62 [36] = test: Cytotoxicity against human HOP62 cells assessed as age growth inhibition at 10 uM after 48 hrs by sulforhodamine B assay; assay type: functional; conditions: HOP-62, 48 h, read-out: GI

`CC1(C)CCC[C@@]2(C)C1=C[C@H]1C(=O)O[C@H](c3ccc(F)cc3)[C@H]12` showed an inhibition of growth at 10 µM (DU-145 [1]) of 0%, an IC50 (HCT-15 [2]) of over 100 µM and an IC50 (SK-OV-3 [3]) of over 100 µM. It also gave an inhibition of growth at 100 µM (COLO 205 [4]) of 32%, an inhibition of growth at 10 µM (A549 [5]) of 2% and an inhibition of growth at 50 µM (A549 [6]) of 45%. For the same compound, the inhibition of growth at 10 µM (HCT-15 [7]) was 13%, the inhibition of growth at 100 µM (IGROV-1 [8]) was 29% and the inhibition of growth at 100 µM (SF-295 [9]) was 15%. It also gave an inhibition of growth at 100 µM (HCT-15 [10]) of 38%, an inhibition of growth at 100 µM (SK-OV-3 [11]) of 41% and an inhibition of growth at 100 µM (A549 [12]) of 51%. It also gave an IC50 (HOP-62 [13]) of over 100 µM, an inhibition of growth at 50 µM (SK-OV-3 [14]) of 13% and an inhibition of growth at 10 µM (SF-295 [15]) of 4%. It also gave an IC50 (DU-145 [16]) of over 100 µM, an inhibition of growth at 50 µM (DU-145 [17]) of 0% and an IC50 (SF-295 [18]) of over 100 µM. For the same compound, the IC50 (A549 [19]) was 79.3 µM, the inhibition of growth at 50 µM (SF-295 [20]) was 10% and the inhibition of growth at 50 µM (HEp-2 [21]) was 13%. It also gave an inhibition of growth at 50 µM (HOP-62 [22]) of 14%, an IC50 (IGROV-1 [23]) of over 100 µM and an inhibition of growth at 100 µM (HOP-62 [24]) of 27%. For the same compound, the inhibition of growth at 50 µM (IGROV-1 [25]) was 20%, the IC50 (HEp-2 [26]) was over 100 µM and the IC50 (COLO 205 [27]) was over 100 µM. For the same compound, the inhibition of growth at 50 µM (COLO 205 [28]) was 26%, the inhibition of growth at 50 µM (HCT-15 [29]) was 34% and the inhibition of growth at 10 µM (SK-OV-3 [30]) was 6%. The inhibition of growth at 100 µM (HEp-2 [31]) was 23%, the inhibition of growth at 10 µM (HEp-2 [32]) was 7% and the inhibition of growth at 10 µM (COLO 205 [33]) was 11%. It also gave an inhibition of growth at 100 µM (DU-145 [34]) of 35%, an inhibition of growth at 10 µM (IGROV-1 [35]) of 7% and an inhibition of growth at 10 µM (HOP-62 [36]) of 9%.

In the case of `CC(=O)O[C@H]1C(=O)[C@@]2(C)[C@H]([C@H](OC(=O)c3ccccc3)[C@]3(O)C[C@H](OC(=O)[C@H](O)[C@@H](NC(=O)c4ccccc4)c4ccccc4)C(C)=C1C3(C)C)[C@]1(OC(C)=O)CO[C@@H]1C[C@@H]2O` [PACLITAXEL], the inhibition of growth at 10 µM (DU-145 [1]) is reported as 52%, the inhibition of growth at 10 µM (A549 [5]) is reported as 40% and the inhibition of growth at 10 µM (HCT-15 [7]) is reported as 40%. For the same compound, the inhibition of growth at 10 µM (SF-295 [15]) was 22%, the inhibition of growth at 10 µM (HEp-2 [32]) was 29% and the inhibition of growth at 10 µM (COLO 205 [33]) was 9%. The inhibition of growth at 10 µM (IGROV-1 [35]) was 15% and the inhibition of growth at 10 µM (HOP-62 [36]) was 26%.

For `COc1cccc2c1C(=O)c1c(O)c3c(c(O)c1C2=O)C[C@@](O)(C(=O)CO)C[C@@H]3O[C@H]1C[C@H](N)[C@H](O)[C@H](C)O1` [DOXORUBICIN], the inhibition of growth at 10 µM (DU-145 [1]) was 64%, the inhibition of growth at 10 µM (A549 [5]) was 47% and the inhibition of growth at 10 µM (HCT-15 [7]) was 54%. The inhibition of growth at 10 µM (SF-295 [15]) was 54% and the inhibition of growth at 10 µM (HOP-62 [36]) was 69%.
